For 8 compounds, GI50 and TGI results are on record in PubChem BioAssay (NCI).

Test systems include RPMI-8226 leukemia; A498 renal; HL-60(TB) leukemia; MALME-3M melanoma; TK-10 renal; SR leukemia; SK-MEL-28 melanoma; SK-MEL-5 melanoma; UO-31 renal; 786-0 renal.
What all share (test): growth of human tumour cells (NCI), 48 h

The structures appear in SMILES notation.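 Values below derive from 48-hour exposures of cells grown in 96-well plates, with endpoints linearly interpolated between the two concentrations bracketing the appropriate inhibition level. The concentration for 50% growth inhibition is given as GI50. The concentration for full growth arrest is given as TGI.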

On to `CC(=O)Nc1ccc(S(=O)(=O)N2C(=O)CCC2C(=O)Nc2ccccc2)cc1` (stereo not given), for which the GI50 with RPMI-8226 leukemia is 830 nM; with A498 renal, 303 nM; in the assay on HL-60(TB) leukemia, 1640 nM; with MALME-3M melanoma, 3380 nM; with TK-10 renal, 1910 nM; in the assay on SR leukemia, 913 nM. The GI50 in the assay on SK-MEL-28 melanoma was 1790 nM; in the assay on SK-MEL-5 melanoma, 367 nM; with UO-31 renal it was 550 nM; in the assay with 786-0 renal it was 1420 nM. The TGI in the assay with RPMI-8226 leukemia was determined as 15000 nM; in the assay with A498 renal it was 8770 nM; in the assay on HL-60(TB) leukemia it was 15200 nM; in the assay with MALME-3M melanoma, 18800 nM; with TK-10 renal, 13500 nM; in the assay with SR leukemia, 12100 nM. The TGI was found to be 18100 nM in the assay with SK-MEL-28 melanoma, 5310 nM with SK-MEL-5 melanoma, 16500 nM in the assay on UO-31 renal and 13300 nM in the assay with 786-0 renal.

`CN(C)c1ccc(-c2cc(-c3cccc(NS(C)(=O)=O)c3)nc(N)c2C#N)cc1`: the GI50 with RPMI-8226 leukemia is 41.6 nM; in the assay with A498 renal, 54 nM; in the assay with HL-60(TB) leukemia it was 36.2 nM; in the assay on MALME-3M melanoma, 948 nM; in the assay on TK-10 renal, 73.5 nM; in the assay on SR leukemia it was 35.9 nM. In addition, the GI50 in the assay on SK-MEL-28 melanoma was 50.8 nM; in the assay with SK-MEL-5 melanoma, 41.4 nM; in the assay on UO-31 renal it was 56.2 nM; in the assay on 786-0 renal, 49.1 nM. In addition, the TGI in the assay with RPMI-8226 leukemia was 2550 nM; in the assay on A498 renal, 38800 nM; in the assay on HL-60(TB) leukemia, 411 nM; in the assay on MALME-3M melanoma, 47900 nM; in the assay on TK-10 renal it was more than 55200 nM; with SR leukemia, 26700 nM. In addition, the TGI with SK-MEL-28 melanoma came out at 35100 nM; with SK-MEL-5 melanoma it was 997 nM; with UO-31 renal it was 45000 nM; in the assay with 786-0 renal it was 13500 nM.

For the compound `O=c1[nH]c2c(ccc3cnccc32)c2c1CCC2`, the GI50 is 244 nM with RPMI-8226 leukemia; 155 nM in the assay on A498 renal; 272 nM in the assay on HL-60(TB) leukemia; 312 nM in the assay on MALME-3M melanoma; 331 nM with TK-10 renal; 306 nM in the assay on SK-MEL-28 melanoma. In addition, the GI50 in the assay with SK-MEL-5 melanoma was 196 nM; in the assay with UO-31 renal, 243 nM; in the assay on 786-0 renal, 344 nM. For the same compound, the TGI was 1180 nM with RPMI-8226 leukemia; 553 nM in the assay with A498 renal; 951 nM with MALME-3M melanoma; more than 100000 nM in the assay with SR leukemia; 840 nM in the assay on SK-MEL-28 melanoma; 517 nM in the assay with SK-MEL-5 melanoma. Besides, the TGI with UO-31 renal is 670 nM; in the assay with 786-0 renal it was 29900 nM.

With `CN1CC[C@H](N(C)C(=O)N2CC(c3cc(F)ccc3F)=C[C@@]2(CO)c2ccccc2)[C@H](F)C1`, the GI50 was 29.4 nM with RPMI-8226 leukemia; 21.1 nM with A498 renal; 33.7 nM in the assay with HL-60(TB) leukemia; 27700 nM in the assay on TK-10 renal; 8.71 nM in the assay with SR leukemia; 4.71 nM in the assay with SK-MEL-5 melanoma. Further, the values for the GI50 in the assay on UO-31 renal and with 786-0 renal were 7740 nM and 7.2 nM, respectively. The TGI is 40800 nM in the assay with RPMI-8226 leukemia; 24800 nM with A498 renal; more than 100000 nM with HL-60(TB) leukemia; 27900 nM in the assay with MALME-3M melanoma; more than 100000 nM with TK-10 renal; 40500 nM in the assay on SR leukemia. Further, the TGI is 28300 nM in the assay with SK-MEL-28 melanoma, 14100 nM in the assay with SK-MEL-5 melanoma, more than 100000 nM in the assay on UO-31 renal and more than 100000 nM with 786-0 renal.

With `COc1cc(C(=O)N[C@@H]2CCCN(C)C2)ccc1Nc1ncc2c(n1)N(C1CCCC1)CC(C)(C)C(=O)N2C`, the GI50 was 1250 nM in the assay with RPMI-8226 leukemia; 71.5 nM in the assay on A498 renal; 26.6 nM in the assay with HL-60(TB) leukemia; 2030 nM with MALME-3M melanoma; 4300 nM in the assay with TK-10 renal; 36.9 nM in the assay on SR leukemia. Moreover, the GI50 with SK-MEL-28 melanoma was 153 nM; in the assay with SK-MEL-5 melanoma it was 123 nM; in the assay on UO-31 renal, 1960 nM; in the assay with 786-0 renal it was 308 nM. The TGI amounted to 19400 nM with RPMI-8226 leukemia; 774 nM in the assay with A498 renal; 78.8 nM in the assay with HL-60(TB) leukemia; 10600 nM in the assay with MALME-3M melanoma; 20900 nM with TK-10 renal; 2490 nM with SR leukemia. Further, the TGI in the assay with SK-MEL-28 melanoma was 2040 nM; with SK-MEL-5 melanoma, 1560 nM; in the assay with UO-31 renal it was 16100 nM; in the assay with 786-0 renal it was 6430 nM.

Turning to `CCN(CC)CCN1C(=O)c2cccc3cc(N)cc(c23)C1=O`, the TGI is 39800 nM in the assay with RPMI-8226 leukemia; 57500 nM in the assay with A498 renal; 50500 nM with HL-60(TB) leukemia; 26100 nM in the assay on MALME-3M melanoma; more than 100000 nM in the assay with TK-10 renal; 39800 nM in the assay on SR leukemia. For the same compound, the TGI in the assay on SK-MEL-28 melanoma was 36100 nM; with SK-MEL-5 melanoma it was 26600 nM; in the assay on UO-31 renal, 66800 nM; in the assay with 786-0 renal, more than 100000 nM.

Take `Cc1n[nH]c(C)c1-c1c(C)n[nH]c1C`: the GI50 in the assay with RPMI-8226 leukemia was 1870 nM; with A498 renal, 1820 nM; in the assay with HL-60(TB) leukemia, 2260 nM; in the assay on MALME-3M melanoma, 1700 nM; with TK-10 renal, 2890 nM; with SR leukemia, 1210 nM. The GI50 with SK-MEL-28 melanoma was 1800 nM; in the assay with SK-MEL-5 melanoma, 1740 nM; in the assay with UO-31 renal it was 1310 nM; in the assay with 786-0 renal, 2370 nM. Besides, the TGI in the assay on RPMI-8226 leukemia was 7010 nM; in the assay on A498 renal, 4120 nM; in the assay with HL-60(TB) leukemia it was 6950 nM; with MALME-3M melanoma, 4050 nM; in the assay with TK-10 renal, 7200 nM; in the assay with SR leukemia it was more than 100000 nM. For the same compound, the TGI in the assay on SK-MEL-28 melanoma came out at 3490 nM; in the assay with SK-MEL-5 melanoma, 3180 nM; in the assay on UO-31 renal, 2700 nM; in the assay with 786-0 renal it was 6420 nM.

In the case of `CS(=O)c1cc(=O)c2ccccc2s1` (stereo not given), the TGI in the assay on RPMI-8226 leukemia turned out to be 9080 nM; with A498 renal it was 25400 nM; in the assay with HL-60(TB) leukemia, 4630 nM; in the assay with MALME-3M melanoma, 4530 nM; in the assay with TK-10 renal, 12700 nM; in the assay with SR leukemia, 4670 nM. The TGI in the assay on SK-MEL-28 melanoma was found to be 8970 nM; with SK-MEL-5 melanoma it was 22400 nM; with UO-31 renal, 22300 nM; in the assay on 786-0 renal, 7410 nM.
